Measurements taken from patent US20140171357A1, “VANCOMYCIN DERIVATIVES” (Seachald Pharmaceuticals, Inc., priority 2011, published 2014).
≈ marks a conversion by molar mass, not a printed value.

Columns and labels:
[1] = test system: S. aureus ATCC 25923; experiment: Neutropenic murine thigh infection model; settings: for AUCc-t (AUC difference between control and treated animals): 24 h time kill
[2] = test system: β-hemolytic streptococci (23); experiment: MIC broth microdilution, β-hemolytic streptococci; settings: for MIC 50% / MIC 90%: β-hemolytic streptococci (23), MHB + lysed horse blood
[3] = test system: VanB vancomycin-resistant E. faecalis (12); experiment: MIC broth microdilution, VanB E. faecalis; settings: for MIC 50% / MIC 90%: E. faecalis, VanB (12)
[4] = test system: vancomycin-intermediate S. aureus (VISA, 5); experiment: MIC broth microdilution, VISA
[5] = test system: vancomycin-susceptible E. faecium (21); experiment: MIC broth microdilution, vancomycin-susceptible E. faecium; settings: for MIC 50% / MIC 90%: E. faecium, vancomycin-susceptible (21)
[6] = test system: VanA vancomycin-resistant E. faecalis (11); experiment: MIC broth microdilution, VanA E. faecalis; settings: for MIC 50% / MIC 90%: E. faecalis, VanA (11)
[7] = test system: S. pneumoniae (22); experiment: MIC broth microdilution, S. pneumoniae; settings: for MIC 50% / MIC 90%: S. pneumoniae (22), MHB + lysed horse blood
[8] = test system: methicillin-susceptible S. aureus (MSSA, 22); experiment: MIC broth microdilution, MSSA; settings: for MIC 50% / MIC 90%: MSSA (22)
[9] = test system: vancomycin-susceptible E. faecalis (23); experiment: MIC broth microdilution, vancomycin-susceptible E. faecalis; settings: for MIC 50% / MIC 90%: E. faecalis, vancomycin-susceptible (23)
[10] = test system: Staphylococcus aureus (65 strains); experiment: MIC broth microdilution, S. aureus all isolates; settings: for MIC 50% / MIC 90%: S. aureus (65), all resistance subsets
[11] = test system: VanC enterococci (22); experiment: MIC broth microdilution, vanC-carrying enterococci; settings: for MIC 50% / MIC 90%: VanC enterococci (22)
[12] = test system: vancomycin-resistant S. aureus (VRSA, 6); experiment: MIC broth microdilution, VRSA
[13] = test system: heterogeneous VISA (hVISA, 10); experiment: MIC broth microdilution, hVISA
[14] = test system: Staphylococcus epidermidis (43 strains); experiment: MIC broth microdilution, S. epidermidis; settings: for MIC 50% / MIC 90%: S. epidermidis (43)
[15] = test system: VanB vancomycin-resistant E. faecium (10); experiment: MIC broth microdilution, VanB E. faecium; settings: for MIC 50% / MIC 90%: E. faecium, VanB (10)
[16] = test system: VanA vancomycin-resistant E. faecium (10); experiment: MIC broth microdilution, VanA E. faecium; settings: for MIC 50% / MIC 90%: E. faecium, VanA (10)
[17] = test system: methicillin-resistant S. aureus (MRSA, 22); experiment: MIC broth microdilution, MRSA; settings: for MIC 50% / MIC 90%: MRSA (22)
[18] = 1 mg/kg single intraperitoneal dose
[19] = 4 mg/kg single intraperitoneal dose
[20] = 16 mg/kg single intraperitoneal dose

CNC(CC(C)C)C(=O)NC1C(=O)NC(CC(N)=O)C(=O)NC2C(=O)NC3C(=O)NC(C(=O)NC(C(=O)O)c4cc(O)c(CNCCOCCOCCN(C)C)c(O)c4-c4cc3ccc4O)C(O)c3ccc(c(Cl)c3)Oc3cc2cc(c3OC2OC(CO)C(O)C(O)C2OC2CC(C)(NCc3ccc(-c4ccc(Cl)cc4)cc3)C(O)C(C)O2)Oc2ccc(cc2Cl)C1O (centres unmarked) [Compound 12]
Max Kill (maximum decrease from initial infection level) [1, 18]: 1.1 Log10 CFU/thigh
AUCc-t (AUC difference between control and treated animals) [1, 18]: 6.1 (Log10 CFU/thigh)/hr
Max Kill (maximum decrease from initial infection level) [1, 19]: −0.03 Log10 CFU/thigh
AUCc-t (AUC difference between control and treated animals) [1, 19]: 17.6 (Log10 CFU/thigh)/hr
Max Kill (maximum decrease from initial infection level) [1, 20]: 0.0005 Log10 CFU/thigh
AUCc-t (AUC difference between control and treated animals) [1, 20]: 29.3 (Log10 CFU/thigh)/hr
MIC 50% [2]: 0.06 µg/mL
MIC 90% [2]: 0.06 µg/mL
MIC 50% [3]: 0.25 µg/mL (≈ 0.136 µM)
MIC 90% [3]: 0.25 µg/mL (≈ 0.136 µM)
MIC 50% [4]: 0.25 µg/mL (≈ 0.136 µM)
MIC 50% [5]: 0.12 µg/mL (≈ 0.0653 µM)
MIC 90% [5]: 0.12 µg/mL (≈ 0.0653 µM)
MIC 50% [6]: 8 µg/mL (≈ 4.35 µM)
MIC 90% [6]: 16 µg/mL (≈ 8.7 µM)
MIC 50% [7]: 0.06 µg/mL
MIC 90% [7]: 0.06 µg/mL
MIC 50% [8]: 0.12 µg/mL (≈ 0.0653 µM)
MIC 90% [8]: 0.12 µg/mL (≈ 0.0653 µM)
MIC 50% [9]: 0.25 µg/mL (≈ 0.136 µM)
MIC 90% [9]: 0.25 µg/mL (≈ 0.136 µM)
MIC 50% [10]: 0.12 µg/mL (≈ 0.0653 µM)
MIC 90% [10]: 0.5 µg/mL (≈ 0.272 µM)
MIC 50% [11]: 0.25 µg/mL (≈ 0.136 µM)
MIC 90% [11]: 0.5 µg/mL (≈ 0.272 µM)
MIC 50% [12]: 8 µg/mL (≈ 4.35 µM)
MIC 50% [13]: 0.12 µg/mL (≈ 0.0653 µM)
MIC 90% [13]: 0.12 µg/mL (≈ 0.0653 µM)
MIC 50% [14]: 0.06 µg/mL (≈ 0.0326 µM)
MIC 90% [14]: 0.12 µg/mL (≈ 0.0653 µM)
MIC 50% [15]: 0.12 µg/mL (≈ 0.0653 µM)
MIC 90% [15]: 0.12 µg/mL (≈ 0.0653 µM)
MIC 50% [16]: 2 µg/mL (≈ 1.09 µM)
MIC 90% [16]: 4 µg/mL (≈ 2.18 µM)
MIC 50% [17]: 0.12 µg/mL (≈ 0.0653 µM)
MIC 90% [17]: 0.12 µg/mL (≈ 0.0653 µM)

Teicoplanin [reference compound]
MIC 50% [2]: 0.12 µg/mL
MIC 90% [2]: 0.25 µg/mL
MIC 50% [3]: 0.5 µg/mL
MIC 90% [3]: 1 µg/mL
MIC 50% [5]: 1 µg/mL
MIC 90% [5]: 1 µg/mL
MIC 50% [6]: 64 µg/mL
MIC 90% [6]: >64 µg/mL
MIC 50% [7]: 0.12 µg/mL
MIC 90% [7]: 0.12 µg/mL
MIC 50% [8]: 0.5 µg/mL
MIC 90% [8]: 1 µg/mL
MIC 50% [9]: 0.5 µg/mL
MIC 90% [9]: 0.5 µg/mL
MIC 50% [10]: 0.5 µg/mL
MIC 90% [10]: 8 µg/mL
MIC 50% [11]: 1 µg/mL
MIC 90% [11]: 2 µg/mL
MIC 50% [14]: 2 µg/mL
MIC 90% [14]: 4 µg/mL
MIC 50% [15]: 1 µg/mL
MIC 90% [15]: 1 µg/mL
MIC 50% [16]: 64 µg/mL
MIC 90% [16]: >64 µg/mL
MIC 50% [17]: 0.5 µg/mL
MIC 90% [17]: 0.5 µg/mL

CN[C@H](CC(C)C)C(=O)N[C@H]1C(=O)N[C@@H](CC(N)=O)C(=O)N[C@H]2C(=O)N[C@H]3C(=O)N[C@H](C(=O)N[C@H](C(=O)O)c4cc(O)cc(O)c4-c4cc3ccc4O)[C@H](O)c3ccc(c(Cl)c3)Oc3cc2cc(c3O[C@@H]2O[C@H](CO)[C@@H](O)[C@H](O)[C@H]2O[C@H]2C[C@](C)(N)[C@H](O)[C@H](C)O2)Oc2ccc(cc2Cl)[C@H]1O [Vancomycin]
MIC50 ([3]; Enterococcus faecalis): > 64 µg/mL
MIC90 ([3]; Enterococcus faecalis): > 64 µg/mL
MIC50 ([5]; Enterococcus faecium): 0.5 µg/mL (≈ 0.345 µM)
MIC90 ([5]; Enterococcus faecium): 1 µg/mL (≈ 0.69 µM)
MIC50 ([6]; Enterococcus faecalis): > 64 µg/mL
MIC90 ([6]; Enterococcus faecalis): > 64 µg/mL
MIC50 ([8]; Staphylococcus aureus, MSSA): 0.5 µg/mL (≈ 0.345 µM)
MIC90 ([8]; Staphylococcus aureus, MSSA): 1 µg/mL (≈ 0.69 µM)
MIC50 ([9]; Enterococcus faecalis): 1 µg/mL (≈ 0.69 µM)
MIC90 ([9]; Enterococcus faecalis): 2 µg/mL (≈ 1.38 µM)
MIC50 ([10]; Staphylococcus aureus): 1 µg/mL (≈ 0.69 µM)
MIC90 ([10]; Staphylococcus aureus): 4 µg/mL (≈ 2.76 µM)
MIC50 [11]: 4 µg/mL (≈ 2.76 µM)
MIC90 [11]: 4 µg/mL (≈ 2.76 µM)
MIC50 ([14]; Staphylococcus epidermidis): 1 µg/mL (≈ 0.69 µM)
MIC90 ([14]; Staphylococcus epidermidis): 2 µg/mL (≈ 1.38 µM)
MIC50 ([15]; Enterococcus faecium): 64 µg/mL (≈ 44.2 µM)
MIC90 ([15]; Enterococcus faecium): > 64 µg/mL
MIC50 ([16]; Enterococcus faecium): > 64 µg/mL
MIC90 ([16]; Enterococcus faecium): > 64 µg/mL
MIC50 ([17]; Staphylococcus aureus, MRSA): 0.5 µg/mL (≈ 0.345 µM)
MIC90 ([17]; Staphylococcus aureus, MRSA): 1 µg/mL (≈ 0.69 µM)

CCCCCCCCCCNCCNC1(C)CC(OC2C(Oc3c4cc5cc3Oc3ccc(cc3Cl)C(O)C3NC(=O)C(NC(=O)C5NC(=O)C(CC(N)=O)NC(=O)C(NC(=O)C(CC(C)C)NC)C(O)c5ccc(c(Cl)c5)O4)c4ccc(O)c(c4)-c4c(cc(O)c(CNCCOCCOCC[N+](C)(C)C)c4O)C(C(=O)O)NC3=O)OC(CO)C(O)C2O)OC(C)C1O (centres unmarked) [Compound 1]
Max Kill (maximum decrease from initial infection level) [1, 18]: 0.15 Log10 CFU/thigh
AUCc-t (AUC difference between control and treated animals) [1, 18]: 28 (Log10 CFU/thigh)/hr
Max Kill (maximum decrease from initial infection level) [1, 19]: −1.14 Log10 CFU/thigh
AUCc-t (AUC difference between control and treated animals) [1, 19]: 32.7 (Log10 CFU/thigh)/hr
Max Kill (maximum decrease from initial infection level) [1, 20]: −1.07 Log10 CFU/thigh
AUCc-t (AUC difference between control and treated animals) [1, 20]: 60.4 (Log10 CFU/thigh)/hr
in vivo efficacy against S. aureus (in words) ([1]; neutropenic soft tissue infection model): bactericidal characteristics and prolonged in vivo activity
fold more potent than teicoplanin and daptomycin ([2]; β-hemolytic streptococci): two- to four
fold more potent than vancomycin ([2]; β-hemolytic streptococci): four- to eight
MIC 50% [2]: 0.03 µg/mL
MIC 90% [2]: 0.06 µg/mL
MIC 50% [3]: 0.12 µg/mL
MIC 90% [3]: 0.12 µg/mL
MIC 50% [4]: 0.12 µg/mL
MIC 50% [5]: 0.03 µg/mL
MIC 90% [5]: 0.03 µg/mL
MIC 50% [6]: 8 µg/mL
MIC 90% [6]: 8 µg/mL
fold more potent than linezolid ([7]; S. pneumoniae): 32 fold
MIC 50% [7]: 0.015 µg/mL
MIC 90% [7]: 0.03 µg/mL
MIC 50% [8]: 0.06 µg/mL
MIC 90% [8]: 0.06 µg/mL
MIC 50% [9]: 0.06 µg/mL
MIC 90% [9]: 0.12 µg/mL
MIC 50% [10]: 0.06 µg/mL
MIC 90% [10]: 0.12 µg/mL
MIC 50% [11]: 0.06 µg/mL
MIC 90% [11]: 0.25 µg/mL
MIC 50% [12]: 2 µg/mL
MIC 50% [13]: 0.06 µg/mL
MIC 90% [13]: 0.06 µg/mL
MIC 50% [14]: 0.03 µg/mL
MIC 90% [14]: 0.06 µg/mL
MIC 50% [15]: 0.015 µg/mL
MIC 90% [15]: 0.03 µg/mL
MIC 50% [16]: 4 µg/mL
MIC 90% [16]: 8 µg/mL
